Reference: ChEMBL document CHEMBL1671812, “Identification of diaryl ether-based ligands for estrogen-related receptor α as potential antidiabetic agents” (J Med Chem, 2011)

Tested on: Rattus norvegicus
Experiment: Antidiabetic activity in ZDF fa/fa rat assessed as reduction of free fatty acid level at 2 mg/kg, po qd for 25 days relative to control
Type: functional

**Q.** Which Activity does the source give for `COc1cc(/C=C2\SC(=O)NC2=O)ccc1Oc1ccc(C#N)cc1C(F)(F)F` here?
**A.** 1.5 mM
